Measurements taken from patent US6943195B2, “Cycloalkenone derivative” (Nikken Chemicals Co., Ltd, priority 2001, dated 2005).

Experiments:
Type IV PDE [1] = system: T1, Type IV PDE; assay: PDE IV inhibitory activity (Test Example 1); assay type: biochemical, rat; settings: for IC50: 3H-cAMP substrate; for PDE IV inhibitory activity relative to that of the racemate: ratio to racemate
T1 construct: PDE IV partially purified from rat neutrophils, 3H-cAMP substrat; PDE IV from rat neutrophils, 3H-cAMP substrate; other: ratio to racemate
Experimental: (§1) To investigate the PDE inhibitory activity and selectivity of the compound, Type I, Type III, Type IV and Type V, that is, four types of PDE isozymes were prepared Trends Pharmacol. Sci. (TiPS), vol. 12, 19-27(1991). The Type I PDE used was one purchased from Sigma. Further, the Type III, Type IV and Type V PDE isozymes used were those partially purified from the blood platelets (Type III and Type V) or neutrophils (Type IV) taken from rats. Each enzyme source was homogenized in a buffer (pH6.5) containing 20 mM Bis-Tris, EDTA (ethylene diamine tetraacetate) 2 mM, PMSF (phenylmethylsulfonyl fluoride) 0.1 mM, 2-mercaptoethanol 5 mM, pepstatin 0.001 mM, and leupeptin 0.01 mM and centrifuged at 30000×G for 30 minutes. The centrifuged supernatent was passed through an ion exchange column (Q Sepharose Fast Flow, made by Pharmacia) and eluted by 0-1M sodium acetate. The partially purified isozyme was identified by investigating the effects of known selective inhibitors.
(§2) The tested compound was dissolved in DMSO (dimethylsulfoxide) and added to 50 mM tris-HCl buffer containing 5 mM […]. To this reaction solution, the above PDE isozyme and ^3H-cAMP (when Type III or Type IV of PDE) or ^3H-cGMP (when Type I or Type V of PDE) was added, as a substrate, and the mixture reacted at 30° C. for 30 minutes. After the reaction, the reaction mixture was placed in a 100° C. boiling solution for 5 minutes to stop the reaction. The nucleotide produced by the PDE was decomposed by 5′-nucleotidase into ^3H-adenosine or ^3H-guanosine. The unreacted substrate and reaction product were passed through an ion exchange column (QAE Sephadex, made by Pharmacia)to separate them. The radioactivity of the eluted ^3H-nucleoside was measured by a liquid sintillation counter. The inhibitory activity of each tested compound was indicated by the IC50 value (μM). The inhibitory activity against Type IV was shown in Table 2, while the inhibitory activity against Type III was shown in Table 3. Further, the inhibitory activity of each test compound to Type I and Type V was less than 1/10 to Type IV.

Type III PDE = molecular target: T2, Type III PDE (Rattus norvegicus, UniProt Q62865); assay: PDE III inhibitory activity (Test Example 1); assay type: biochemical; settings: for IC50: Table I, PDE III partially purified from rat blood platelets, 3H-cAMP substrate; for PDE III inhibitory activity relative to that of the racemate: ratio to racemate
T2 construct: from tissue; host or cells: rat blood platelets
T2 sequence (Q62865 1-1141): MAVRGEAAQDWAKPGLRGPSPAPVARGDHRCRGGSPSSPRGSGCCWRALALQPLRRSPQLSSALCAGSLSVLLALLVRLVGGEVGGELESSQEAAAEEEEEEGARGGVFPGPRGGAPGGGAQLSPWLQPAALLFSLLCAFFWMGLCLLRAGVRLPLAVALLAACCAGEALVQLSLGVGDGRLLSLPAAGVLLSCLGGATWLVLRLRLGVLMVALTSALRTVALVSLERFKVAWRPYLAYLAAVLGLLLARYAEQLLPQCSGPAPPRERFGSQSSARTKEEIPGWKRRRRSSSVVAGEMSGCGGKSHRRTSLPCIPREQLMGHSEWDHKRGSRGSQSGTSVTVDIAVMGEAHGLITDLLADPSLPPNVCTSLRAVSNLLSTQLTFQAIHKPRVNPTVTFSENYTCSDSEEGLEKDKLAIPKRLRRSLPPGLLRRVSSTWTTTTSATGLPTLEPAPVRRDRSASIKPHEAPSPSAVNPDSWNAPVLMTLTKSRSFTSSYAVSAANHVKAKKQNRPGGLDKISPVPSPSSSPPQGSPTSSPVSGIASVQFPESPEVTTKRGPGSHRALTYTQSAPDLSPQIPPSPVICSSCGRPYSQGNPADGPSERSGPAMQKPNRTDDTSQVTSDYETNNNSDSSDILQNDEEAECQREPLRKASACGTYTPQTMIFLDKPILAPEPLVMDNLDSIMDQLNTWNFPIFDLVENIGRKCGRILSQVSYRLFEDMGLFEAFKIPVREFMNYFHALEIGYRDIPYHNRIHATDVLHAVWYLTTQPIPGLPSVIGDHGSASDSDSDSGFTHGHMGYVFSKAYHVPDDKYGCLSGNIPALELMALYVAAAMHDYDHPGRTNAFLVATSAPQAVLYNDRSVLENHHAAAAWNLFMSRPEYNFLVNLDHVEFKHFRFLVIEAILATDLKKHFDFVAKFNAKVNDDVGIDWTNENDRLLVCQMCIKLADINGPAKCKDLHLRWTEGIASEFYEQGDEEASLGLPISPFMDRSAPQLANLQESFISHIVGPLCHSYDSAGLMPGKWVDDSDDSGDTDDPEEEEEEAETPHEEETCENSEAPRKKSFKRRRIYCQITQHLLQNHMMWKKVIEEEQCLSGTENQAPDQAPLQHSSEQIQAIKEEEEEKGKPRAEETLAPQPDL
Experimental: as §1, §2

Type IV PDE [2] = assay: PDE IV inhibitory activity (Test Example 1); assay type: biochemical, rat; settings: PDE IV versus PDE III, compared with the racemate
Experimental: as §1, §2

[3] = Table I, PDE IV partially purified from rat neutrophils
[4] = Table II, PDE IV from rat neutrophils
[5] = listed as The compound of the present invention

**Q.** Which IC50 (Type IV PDE [1]; [3]) does the source give for `COc1ccc(NC2=C(C)C(=O)CC2)cc1O[C@@H]1C[C@H]2CC[C@@H]1C2` (racemic) [(±)-isomer, (±)-3-[3-[(1RS,2RS,4SR)-bicyclo[2.2.1]hept-2-yloxy]-4-methoxyanilino]-2-methyl-2-cyclopenten-1-one, reference compound] here?
**A.** 270 nM

**Q.** And the IC50 (Type IV PDE [1]; [4])?
**A.** 270 nM

**Q.** And the IC50 (Type III PDE)?
**A.** 3860 nM

**Q.** With `COc1ccc(NC2=C(C)C(=O)CC2)cc1O[C@H]1C[C@@H]2CC[C@H]1C2` [(+)-isomer, (+)-3-[3-[(1S,2S,4R)-bicyclo[2.2.1]hept-2-yloxy]-4-methoxyanilino]-2-methyl-2-cyclopenten-1-one] as the compound, how does the “selectivity with respect to PDE IV” value (Type IV PDE [2]) read?
**A.** low

**Q.** What about the IC50 (Type IV PDE [1]; [3]) of the same compound?
**A.** 360 nM

**Q.** What about the IC50 (Type IV PDE [1]; [4]) of the same compound?
**A.** 360 nM

**Q.** What about the “PDE IV inhibitory activity relative to that of the racemate” value (Type IV PDE [1]) of the same compound?
**A.** about ¾

**Q.** What about the IC50 (Type III PDE) of the same compound?
**A.** 1570 nM

**Q.** And the “PDE III inhibitory activity relative to that of the racemate” value (Type III PDE)?
**A.** twice or more of that of the racemate

**Q.** How did the “selectivity with respect to PDE IV” value (Type IV PDE [2]) turn out when `COc1ccc(NC2=C(C)C(=O)CC2)cc1O[C@@H]1C[C@H]2CC[C@@H]1C2` [(−)-isomer, (−)-3-[3-[(1R,2R,4S)-bicyclo[2.2.1]hept-2-yloxy]-4-methoxyanilino]-2-methyl-2-cyclopenten-1-one] was run?
**A.** high

**Q.** What about the IC50 (Type IV PDE [1]; [3]) of the same compound?
**A.** 120 nM

**Q.** And the IC50 (Type IV PDE [1]; [4])?
**A.** 120 nM

**Q.** What about the “PDE IV inhibitory activity relative to that of the racemate” value (Type IV PDE [1]) of the same compound?
**A.** about twice that of the racemate

**Q.** What about the “PDE IV inhibitory activity relative to that of the racemate” value (Type IV PDE [1]; [5]) of the same compound?
**A.** at least two times that of a racemate

**Q.** And the IC50 (Type III PDE)?
**A.** 9030 nM

**Q.** And the “PDE III inhibitory activity relative to that of the racemate” value (Type III PDE)?
**A.** less than half of that of the racemate

**Q.** What about the “PDE III inhibitory activity relative to that of the racemate” value (Type III PDE; [5]) of the same compound?
**A.** less than ½
